Measurements from patent publication US4456618A, “Naphthenic and heterocyclic retinoic acid analogues” (SRI International, priority 1982, dated 1984).

Tests used:
[1] = system: Hamster Tracheal Organ Culture; assay: Reversal of keratinization in hamster tracheal organ culture; type: cell-based
Protocol: (§1) The ODC assay measures a compound's ability to prevent the induction of ODC. The tracheal organ culture assay measures a compound's ability to reverse keratinization.
The tracheal organ culture assay is carried out as follows. Tracheas are taken from hamsters that are in very early stages of vitamin A deficiency and placed in organ culture. At the time of culture, the animals are still gaining weight; the tracheal epithelium is generally low columnar or cuboidal, with only occasional patches of squamous metaplasia. Each trachea is opened from the larynx to the carina along the membranous dorsal wall and cultured in a serum-free medium (CMRL-1066; with crystalline bovine insulin, 0.1 μg/ml; hydrocortisone hemisuccinate, 0.1 μg/ml; glutamine, 2 mM; penicillin, 100 units/ml; and streptomycin,100 μg/ml, added). Cultures are gassed with 50% oxygen, 45% nitrogen, and 5% CO2. The culture dishes are rocked at 35.5-36.0 degrees to allow the tracheas contact with both gas and medium. All tracheas are grown in medium containing no retinoid for the first 3 days. At the end of 3 days, some tracheas are harvested; almost all of these tracheas have significant squamous metaplasia, and approximately 60% have keratinized lesions. The remaining tracheas are then divided into different groups which are treated with either: (1) retinoid dissolved in dimethylsulfoxide (final concentration of DMSO in culture medium is never greater than 0.1%) or (2) an equivalent amount of DMSO alone. Culture medium is changed three times a week, and all of the remaining tracheas are harvested at the end of 10 days in culture. Tracheas are fixed in 10% buffered formalin and embedded in paraffin. Cross sections of five micrometers are made through the mid-portion, stained with hematoxylin and eosin, and then scored with a microscope for the presence of keratin and keratohyaline granules, both of which are found in approximately 90% of control cultures that received no retinoid for the entire 10 day culture period.

Ornithine Decarboxylase = assay: Ornithine decarboxylase (ODC) assay: inhibition of TPA-induced ODC induction in mouse skin; type: in vivo, mouse (female Charles River CD-1); settings: topical, 1 hour before TPA (17 nmol)
Protocol: as §1
The ODC assay is carried out as follows. Female Charles River CD-1 mice from Charles River Breeding Laboratories, Wilmington, Mass., are used (age 7 to 9 weeks). The dorsal hair of the mice is shaved 1 to 2 days before testing, and only mice showing no hair regrowth are used. A single dose of 12-O-tetradecanoylphorbol-13-acetate (TPA) (10.5 μg, 17 nmol) in 0.2 mL of acetone is applied topically to the back of each mouse. The test compound, at one of three dose levels (1.7, 17 and 170 nmol), dissolved in 0.2 mL of acetone is applied 1 hour before the TPA treatment to the test groups; the control group is treated with acetone alone. The mice are killed by cervical dislocation five hours after TPA treatment. Determinations are done in triplicate.
The epidermis is obtained from the sacrificed animals. To obtain sufficient material, the dorsal skins from 2 to 3 mice in each treatment group are pooled. The depilatory agent Nudit® (Helena Rubinstein, New York) is applied to the shaved area of the skin; after 5 minutes, it is washed off thoroughly with cold tap water. Then the skin is excised and plunged immediately into ice-cold water; it is then placed in a 55° C. water bath for 30 seconds and reimmersed in ice-cold water for at lease another 30 seconds. The skin is placed epidermis side up on a cold plate, and the epidermis is scraped off with a razor blade. The pooled epidermal sheets are homogenized (Polytron PT-10 homogenizer) at 0° to 4° C. for 15-20 seconds in 50 mM sodium phosphate and 0.1 mM ethylenediaminetetraacetic acid (EDTA), at a volume of 1 mL/skin.
The supernatant fraction remaining after centrifugation of the homogenate at 10,000×g for 30 seconds at 0° C. is used for the enzyme assay. Enzyme activity is determined using the microassay for ODC as described by Verma and Boutwell to measure the release of ^14 CO2 from DL-[1-^14 C]-ornithine (58 mCi/mmol) after incubation with the 10,000×g supernatant. The incubations are carried out by decanting, with a Pasteur pipette, 100 μL of the supernatant containing 100 to 120 μg of protein into two or three 15-mL Corex tubes in a shaking water bath at 37° C. The assay mixture in the tubes consists of 50 μL of 100 mM sodium phosphate buffer (pH 7.2), 10 μL of 4 mM pyridoxal phosphate, 40 μL of 25 mM dithiothreitol, and 1 μL of 0.1 M EDTA. The center wells in the tubes are filled with 200 μL of a 2:1 solution (v/v) of ethanolamine:2-methoxyethanol. The reaction is started by adding 50 μL of substrate (0.5 μCi of DL-[1-^14 C]-ornithine in 2 mM cold ornithine) at 1-minute intervals by injection to each of the stoppered tubes. Incubations are routinely carried out at 37° C. for 30 to 60 minutes. The reaction is stopped by addition of 0.5 ml of 2 M citric acid, and incubation is continued for an additional hour without heating to ensure complete absorption of ^14 CO2.
Radioactivity is measured using a toluene-based scintillant (4 g of PPO and 50 mg of POPOP/L of toluene) in a Beckman LS-250 liquid scintillation counter. Enzyme activity is determined in triplicate and expressed as nanomoles of CO2 released in 30 minutes per milligram of protein. Enzyme activity is linear for the protein concentration used. The protein concentrations of the epidermal extracts are determined by the Lowry procedure, using bovine serum albumin as the standard.

SMILES | Reversal of Keratinization, Active/Total Cultures ([1]; Conc 10^-8 M) | Reversal of Keratinization, Active/Total Cultures (%) ([1]; Conc 10^-8 M) | Reversal of Keratinization, Active/Total Cultures ([1]; Conc 10^-9 M) | Reversal of Keratinization, Active/Total Cultures (%) ([1]; Conc 10^-9 M) | Reversal of Keratinization, Active/Total Cultures ([1]; Conc 10^-10 M) | Reversal of Keratinization, Active/Total Cultures (%) ([1]; Conc 10^-10 M) | Inhibition of Induction of Ornithine Decarboxylase by 12-O-Tetradecanoylphorbol-13-acetate in Mouse Skin, % Inhibition of Control (Ornithine Decarboxylase; Dose 1.7 nmol) [%] | Inhibition of Induction of Ornithine Decarboxylase by 12-O-Tetradecanoylphorbol-13-acetate in Mouse Skin, % Inhibition of Control (Ornithine Decarboxylase; Dose 17 nmol) [%]
CC1=C(/C=C/c2ccc3cc(C=O)ccc3c2)C(C)(C)CCC1 [Example 1, (E)-6-[2-(2,6,6-trimethyl-1-cyclohexen-1-yl)ethenyl]-2-naphthaldehyde] | 15/16 | 94 | 7/14 | 50 | 4/14 | 28 | 0 | 45
CC1=C(/C=C/c2ccc3cc(C(=O)O)ccc3c2)C(C)(C)CCC1 [Example 3, 6-[2-(2,6,6-trimethyl-1-cyclohexen-1-yl)ethenyl]-2-naphthoicacid] | 7/7 | 100 | 7/7 | 100 | 3/7 | 43 | 30 | 48
CCOC(=O)c1ccc(/C=C(C)/C=C/C2=C(C)CCCC2(C)C)o1 [Example 4, (E)-1-(5-Carbethoxy-2-furanyl)-2-methyl-4-(2,6,6-trimethyl-1-cyclohexen-1-yl)-1,3-butadiene] | 2/7 | 29 | 2/7 | 29 | 2/6 | 33 | 9 | 9
CC1=C(/C=C/C(C)=C/c2ccc(C(=O)O)o2)C(C)(C)CCC1 [Example 5, (E)-1-(5-carboxy-2-furanyl)-2-methyl-4-(2,6,6-trimethyl-1-cyclohexen-1-yl)-1,3-butadiene] | 3/6 | 50 | 3/7 | 43 | 3/7 | 43 | 7 | 5
CCOC(=O)c1ccc(/C=C(C)/C=C/C2=C(C)CCCC2(C)C)s1 [Example 6, (E)-1-(5-Carbethoxythien-2-yl)-2-methyl-4-(2,6,6-trimethyl-1-cyclohexen-1-yl)-1,3-butadiene] | 13/13 | 100 | 10/14 | 71 | 6/14 | 43 | 67 | 77
CC1=C(/C=C/C(C)=C/c2ccc(C(=O)O)s2)C(C)(C)CCC1 [Example 8, (E)-1-(5-carboxythien-2-yl)-2-methyl-4-(2,6,6-trimethyl-1-cyclohexen-1-yl)-1,3-butadiene] | 15/15 | 100 | 14/15 | 93 | 7/15 | 47 | 42 | 67
